The subject of one series is Tobacco Budworm. Description: Foliar LC50 - Tobacco Budworm. The following applies: for LC50: Heliothis virescens. The format is in vivo. An excerpt: This increase in activity is illustrated in Table II in which the test insect is the economically important tobacco budworm.
Foliar LC50 (ppm) - Tobacco Budworm

For series [1] the following is noted: well known; c2, t2 pairs compared with c1 (III/IV) and t1 (VII/VIII) pairs; cited from earlier work.

The values below come from US5028731A, “Preparation of mixtures of cypermethrin or cyfluthrin isomers enriched in more active species” (FMC Corporation, priority 1989, dated 1991).

Values after ≈ are worked out from the molar mass of the structure shown. Read-outs that look alike come from different tables or passages of the source.

As to `CC1(C)C(C=C(Cl)Cl)C1C(=O)OC(C#N)c1cccc(Oc2ccccc2)c1` (racemic) [Example 1, (R,S)-(cyano)(3-phenoxyphenyl)methyl cis/trans-3-(2,2-dichloroethenyl)-2,2-dimethylcyclopropanecarboxylate], the LC50 in the series with Tobacco Budworm (Average of Tests 1-3, read-out: Foliar LC50, Average) was determined as 13.2 µg/mL (≈ 31.7 µM); in the series on Tobacco Budworm (Test 1, read-out: Foliar LC50), 8.4 µg/mL (≈ 20.2 µM); in the series on Tobacco Budworm (Test 2, read-out: Foliar LC50), 18.7 µg/mL (≈ 44.9 µM); in the series on Tobacco Budworm (Test 3, read-out: Foliar LC50) it was 12.5 µg/mL (≈ 30 µM).
`CC1(C)C(C=C(Cl)Cl)C1C(=O)OC(C#N)c1cccc(Oc2ccccc2)c1` (racemic) [Example 5, (R,S)-(cyano)(3-phenoxyphenyl)methyl cis/trans-3-(2,2-dichloroethenyl)-2,2-dimethylcyclopropanecarboxylate]: the “Foliar LC50, Average” value in the series with Tobacco Budworm (Average of Tests 1-3) was 9.9 ppm. For the same compound, the “Foliar LC50” value in the series with Tobacco Budworm (Test 1) is on record as 6.5 ppm; with Tobacco Budworm (Test 2) it was 12.3 ppm; with Tobacco Budworm (Test 3), 11.0 ppm.
For `CC1(C)[C@H](C(=O)O[C@H](C#N)c2cccc(Oc3ccccc3)c2)[C@@H]1C=C(Cl)Cl` (relative stereo) [c2 enantiomer pair], the insecticidal activity result in series [1] is given as “more insecticidally active”.
Regarding `CC1(C)[C@H](C=C(Cl)Cl)[C@H]1C(=O)O[C@H](C#N)c1cccc(Oc2ccccc2)c1` (relative stereo) [t2 enantiomer pair], the insecticidal activity result in series [1] was “more insecticidally active”.
As to `CC1(C)[C@H](C(=O)O[C@H](C#N)c2cccc(Oc3ccccc3)c2)[C@@H]1C=C(Cl)Cl` [I, (S)-(cyano)(3-phenoxyphenyl)methyl 1R,cis-3-(2,2-dichloroethenyl)-2,2-dimethylcyclopropanecarboxylate], the insecticidal activity result in series [1] is reported as “most insecticidally active”.
As to `CC1(C)[C@H](C=C(Cl)Cl)[C@H]1C(=O)O[C@H](C#N)c1cccc(Oc2ccccc2)c1` [V], the insecticidal activity entry in series [1] is listed as “most insecticidally active”.

By LC50 is commonly meant the concentration that kills 50% of the test population.
